Patent US10004701B2, “Methods and compositions for treating infection” (UNIVERSITY OF ROCHESTER, priority 2012, dated 2018)
Structures can show the parent of a compound that is named as a salt. Where two headings read alike, the source gives them in different places.

Experiments:
Assay in all cases: AK assay 384-well format, Prestwick library screening
[1] = test system: S. aureus strain USA300-0114; format: cell-based, Staphylococcus aureus; settings: 50 μM final drug concentration; for fold induction at 50 µM: Staphylococcus aureus, USA300, 3 h; for AK-based Prestwick Library Screening Results, S. aureus (fold increase in extracellular AK activity): cutoff for positive 3-fold increase
E. faecium = format: cell-based, Enterococcus faecium; settings: 50 μM final drug concentration; for fold induction at 50 µM: Enterococcus faecium, 3 h; for AK-based Prestwick Library Screening Results, E. faecium (fold increase in extracellular AK activity): cutoff for positive 3-fold increase
[2] = test system: A. baumannii strain 98-37-09; format: cell-based, Acinetobacter baumannii; settings: 50 μM final drug concentration; for fold induction at 50 µM: Acinetobacter baumannii, 983709, 3 h; for AK-based Prestwick Library Screening Results, A. baumannii (fold increase in extracellular AK activity): cutoff for positive 3-fold increase
K. pneumoniae = format: cell-based, Klebsiella pneumoniae; settings: 50 μM final drug concentration; for fold induction at 50 µM: Klebsiella pneumoniae, 3 h; for AK-based Prestwick Library Screening Results, K. pneumoniae (fold increase in extracellular AK activity): cutoff for positive 3-fold increase
P. aeruginosa = format: cell-based, Pseudomonas aeruginosa; settings: 50 μM final drug concentration; for fold induction at 50 µM: Pseudomonas aeruginosa, 3 h; for AK-based Prestwick Library Screening Results, P. aeruginosa (fold increase in extracellular AK activity): cutoff for positive 3-fold increase
E. coli = format: cell-based, Escherichia coli; settings: 50 μM final drug concentration; for fold induction at 50 µM: Escherichia coli, 3 h; for AK-based Prestwick Library Screening Results, E. coli (fold increase in extracellular AK activity): cutoff for positive 3-fold increase
E. cloacae = format: cell-based, Enterobacter cloacae; settings: 50 μM final drug concentration; for fold induction at 50 µM: Enterobacter cloacae, 3 h; for AK-based Prestwick Library Screening Results, E. cloacae (fold increase in extracellular AK activity): cutoff for positive 3-fold increase

Work on CC[C@H]1OC(=O)[C@H](C)[C@@H](O[C@H]2C[C@@](C)(OC)[C@@H](O)[C@H](C)O2)[C@H](C)[C@@H](O[C@@H]2O[C@H](C)C[C@H](N(C)C)[C@H]2O)[C@](C)(O)C[C@@H](C)/C(=N\OCOCCOC)[C@H](C)[C@@H](O)[C@]1(C)O [Roxithromycin] yielded a fold induction at 50 µM ([1]; cutoff for positive-scoring molecules 3-fold increase, read-out: AK-based Prestwick Library Screening Results, S. aureus (fold increase in extracellular AK activity)) of 2.8, a fold induction at 50 µM (E. faecium; cutoff for positive-scoring molecules 3-fold increase, read-out: AK-based Prestwick Library Screening Results, E. faecium (fold increase in extracellular AK activity)) of 1.4 and a fold induction at 50 µM ([2]; cutoff for positive-scoring molecules 3-fold increase, read-out: AK-based Prestwick Library Screening Results, A. baumannii (fold increase in extracellular AK activity)) of 1. For the same compound, the fold induction at 50 µM (K. pneumoniae; cutoff for positive-scoring molecules 3-fold increase, read-out: AK-based Prestwick Library Screening Results, K. pneumoniae (fold increase in extracellular AK activity)) was 1.1, the fold induction at 50 µM (P. aeruginosa; cutoff for positive-scoring molecules 3-fold increase, read-out: AK-based Prestwick Library Screening Results, P. aeruginosa (fold increase in extracellular AK activity)) was 0.9 and the fold induction at 50 µM (E. coli; cutoff for positive-scoring molecules 3-fold increase, read-out: AK-based Prestwick Library Screening Results, E. coli (fold increase in extracellular AK activity)) was 0.9. For the same compound, the fold induction at 50 µM (E. cloacae; cutoff for positive-scoring molecules 3-fold increase, read-out: AK-based Prestwick Library Screening Results, E. cloacae (fold increase in extracellular AK activity)) was 1.5.

CN(C)CCn1nnnc1SCC1=C(C(=O)O)N2C(=O)[C@@H](NC(=O)Cc3csc(N)n3)[C@H]2SC1 [Cefotiam hydrochloride] gave a fold induction at 50 µM ([1]; planktonic S. aureus, 384-well, cutoff for positive-scoring molecules 3-fold increase, read-out: AK-based Prestwick Library Screening Results: S. aureus (increase in extracellular AK activity)) of 2.3, a fold induction at 50 µM (E. faecium; planktonic E. faecium, 384-well, cutoff for positive-scoring molecules 3-fold increase, read-out: AK-based Prestwick Library Screening Results: E. faecium (increase in extracellular AK activity)) of 0.9 and a fold induction at 50 µM ([2]; planktonic A. baumannii, 384-well, cutoff for positive-scoring molecules 3-fold increase, read-out: AK-based Prestwick Library Screening Results: A. baumannii (increase in extracellular AK activity)) of 0.9. For the same compound, the fold induction at 50 µM (K. pneumoniae; planktonic K. pneumoniae, 384-well, cutoff for positive-scoring molecules 3-fold increase, read-out: AK-based Prestwick Library Screening Results: K. pneumoniae (increase in extracellular AK activity)) was 7.8, the fold induction at 50 µM (P. aeruginosa; planktonic P. aeruginosa, 384-well, cutoff for positive-scoring molecules 3-fold increase, read-out: AK-based Prestwick Library Screening Results: P. aeruginosa (increase in extracellular AK activity)) was 0.6 and the fold induction at 50 µM (E. coli; planktonic E. coli, 384-well, cutoff for positive-scoring molecules 3-fold increase, read-out: AK-based Prestwick Library Screening Results: E. coli (increase in extracellular AK activity)) was 23.9. The fold induction at 50 µM (E. cloacae; planktonic E. cloacae, 384-well, cutoff for positive-scoring molecules 3-fold increase, read-out: AK-based Prestwick Library Screening Results: E. cloacae (increase in extracellular AK activity)) was 15.6.

(S)-(−)-Atenolol was tested, and the “AK-based Prestwick Library Screening Results, S. aureus (fold increase in extracellular AK activity)” value ([1]; planktonic) was 1.2, the “AK-based Prestwick Library Screening Results, E. faecium (fold increase in extracellular AK activity)” value (E. faecium; planktonic) was 1.0 and the “AK-based Prestwick Library Screening Results, A. baumannii (fold increase in extracellular AK activity)” value ([2]; planktonic) was 1.1. The “AK-based Prestwick Library Screening Results, K. pneumoniae (fold increase in extracellular AK activity)” value (K. pneumoniae; planktonic) was 0.9, the “AK-based Prestwick Library Screening Results, P. aeruginosa (fold increase in extracellular AK activity)” value (P. aeruginosa; planktonic) was 1.1 and the “AK-based Prestwick Library Screening Results, E. coli (fold increase in extracellular AK activity)” value (E. coli; planktonic) was 1.2. The “AK-based Prestwick Library Screening Results, E. cloacae (fold increase in extracellular AK activity)” value (E. cloacae; planktonic) was 1.7.

For Terbutaline hemisulfate, the “AK-based Prestwick Library Screening Results, S. aureus (fold increase in extracellular AK activity)” value ([1]; planktonic) was 1.1, the “AK-based Prestwick Library Screening Results, E. faecium (fold increase in extracellular AK activity)” value (E. faecium; planktonic) was 1.0 and the “AK-based Prestwick Library Screening Results, A. baumannii (fold increase in extracellular AK activity)” value ([2]; planktonic) was 1.1. For the same compound, the “AK-based Prestwick Library Screening Results, K. pneumoniae (fold increase in extracellular AK activity)” value (K. pneumoniae; planktonic) was 1.3, the “AK-based Prestwick Library Screening Results, P. aeruginosa (fold increase in extracellular AK activity)” value (P. aeruginosa; planktonic) was 1.1 and the “AK-based Prestwick Library Screening Results, E. coli (fold increase in extracellular AK activity)” value (E. coli; planktonic) was 1.2. For the same compound, the “AK-based Prestwick Library Screening Results, E. cloacae (fold increase in extracellular AK activity)” value (E. cloacae; planktonic) was 1.4.

For CN(C)C(=O)C(CCN1CCC(O)(c2ccc(Cl)cc2)CC1)(c1ccccc1)c1ccccc1 [Loperamide hydrochloride], the fold induction at 50 µM ([1]; planktonic S. aureus, 384-well, […], read-out: AK-based Prestwick Library Screening Results: S. aureus (increase in extracellular AK activity)) was 1, the fold induction at 50 µM (E. faecium; planktonic E. faecium, 384-well, […], read-out: AK-based Prestwick Library Screening Results: E. faecium (increase in extracellular AK activity)) was 0.9 and the fold induction at 50 µM ([2]; planktonic A. baumannii, 384-well, […], read-out: AK-based Prestwick Library Screening Results: A. baumannii (increase in extracellular AK activity)) was 1.5. It also gave a fold induction at 50 µM (K. pneumoniae; planktonic K. pneumoniae, 384-well, […], read-out: AK-based Prestwick Library Screening Results: K. pneumoniae (increase in extracellular AK activity)) of 0.9, a fold induction at 50 µM (P. aeruginosa; planktonic P. aeruginosa, 384-well, […], read-out: AK-based Prestwick Library Screening Results: P. aeruginosa (increase in extracellular AK activity)) of 1.2 and a fold induction at 50 µM (E. coli; planktonic E. coli, 384-well, […], read-out: AK-based Prestwick Library Screening Results: E. coli (increase in extracellular AK activity)) of 1.4. The fold induction at 50 µM (E. cloacae; planktonic E. cloacae, 384-well, […], read-out: AK-based Prestwick Library Screening Results: E. cloacae (increase in extracellular AK activity)) was 1.5.

CN(C)[C@@H]1C(O)=C(C(N)=O)C(=O)[C@@]2(O)C(O)=C3C(=O)c4c(O)ccc(Cl)c4[C@@H](O)[C@H]3C[C@@H]12 [Demeclocycline hydrochloride] was tested, and the fold induction at 50 µM ([1]; planktonic, cutoff for positive-scoring molecules 3-fold increase, read-out: AK-based Prestwick Library Screening Results, S. aureus (fold increase in extracellular AK activity)) was 7.1, the fold induction at 50 µM (E. faecium; planktonic, cutoff for positive-scoring molecules 3-fold increase, read-out: AK-based Prestwick Library Screening Results, E. faecium (fold increase in extracellular AK activity)) was 0.9 and the fold induction at 50 µM ([2]; planktonic, cutoff for positive-scoring molecules 3-fold increase, read-out: AK-based Prestwick Library Screening Results, A. baumannii (fold increase in extracellular AK activity)) was 3.4. The fold induction at 50 µM (K. pneumoniae; planktonic, cutoff for positive-scoring molecules 3-fold increase, read-out: AK-based Prestwick Library Screening Results, K. pneumoniae (fold increase in extracellular AK activity)) was 0.2, the fold induction at 50 µM (P. aeruginosa; planktonic, cutoff for positive-scoring molecules 3-fold increase, read-out: AK-based Prestwick Library Screening Results, P. aeruginosa (fold increase in extracellular AK activity)) was 0.4 and the fold induction at 50 µM (E. coli; planktonic, cutoff for positive-scoring molecules 3-fold increase, read-out: AK-based Prestwick Library Screening Results, E. coli (fold increase in extracellular AK activity)) was 0.5. The fold induction at 50 µM (E. cloacae; planktonic, cutoff for positive-scoring molecules 3-fold increase, read-out: AK-based Prestwick Library Screening Results, E. cloacae (fold increase in extracellular AK activity)) was 1.3.

Compound N=C(N)NC(=O)c1nc(Cl)c(N)nc1N [Amiloride hydrochloride dihydrate] has a fold induction at 50 µM ([1]; 384-well format, cutoff for positive-scoring molecules 3-fold increase, read-out: AK-based Prestwick Library Screening Results, S. aureus (increase in extracellular AK activity)) of 0.4, a fold induction at 50 µM (E. faecium; 384-well format, cutoff for positive-scoring molecules 3-fold increase, read-out: AK-based Prestwick Library Screening Results, E. faecium (increase in extracellular AK activity)) of 0.8 and a fold induction at 50 µM ([2]; 384-well format, cutoff for positive-scoring molecules 3-fold increase, read-out: AK-based Prestwick Library Screening Results, A. baumannii (increase in extracellular AK activity)) of 0.4. The fold induction at 50 µM (K. pneumoniae; 384-well format, cutoff for positive-scoring molecules 3-fold increase, read-out: AK-based Prestwick Library Screening Results, K. pneumoniae (increase in extracellular AK activity)) was 0.4, the fold induction at 50 µM (P. aeruginosa; 384-well format, cutoff for positive-scoring molecules 3-fold increase, read-out: AK-based Prestwick Library Screening Results, P. aeruginosa (increase in extracellular AK activity)) was 0.3 and the fold induction at 50 µM (E. coli; 384-well format, cutoff for positive-scoring molecules 3-fold increase, read-out: AK-based Prestwick Library Screening Results, E. coli (increase in extracellular AK activity)) was 0.5. The fold induction at 50 µM (E. cloacae; 384-well format, cutoff for positive-scoring molecules 3-fold increase, read-out: AK-based Prestwick Library Screening Results, E. cloacae (increase in extracellular AK activity)) was 0.4.

In the case of NCC(CC(=O)O)c1ccc(Cl)cc1 (racemic) [Baclofen (R,S)], the “AK-based Prestwick Library Screening Results, S. aureus (increase in extracellular AK activity)” value ([1]; 384-well format, […]) is reported as 0.4, the “AK-based Prestwick Library Screening Results, E. faecium (increase in extracellular AK activity)” value (E. faecium; 384-well format, […]) is reported as 0.8 and the “AK-based Prestwick Library Screening Results, A. baumannii (increase in extracellular AK activity)” value ([2]; 384-well format, […]) is reported as 0.4. For the same compound, the “AK-based Prestwick Library Screening Results, K. pneumoniae (increase in extracellular AK activity)” value (K. pneumoniae; 384-well format, […]) was 0.6, the “AK-based Prestwick Library Screening Results, P. aeruginosa (increase in extracellular AK activity)” value (P. aeruginosa; 384-well format, […]) was 0.3 and the “AK-based Prestwick Library Screening Results, E. coli (increase in extracellular AK activity)” value (E. coli; 384-well format, […]) was 0.5. The “AK-based Prestwick Library Screening Results, E. cloacae (increase in extracellular AK activity)” value (E. cloacae; 384-well format, […]) was 0.3.

Deptropine citrate was tested, and the “AK-based Prestwick library screening result, S. aureus (fold increase in extracellular AK activity)” value ([1]; planktonic S. aureus, […]) was 1.1, the “AK-based Prestwick library screening result, E. faecium (fold increase in extracellular AK activity)” value (E. faecium; planktonic E. faecium, […]) was 1.1 and the “AK-based Prestwick library screening result, A. baumannii (fold increase in extracellular AK activity)” value ([2]; planktonic A. baumannii, […]) was 1.3. For the same compound, the “AK-based Prestwick library screening result, K. pneumoniae (fold increase in extracellular AK activity)” value (K. pneumoniae; planktonic K. pneumoniae, […]) was 0.9, the “AK-based Prestwick library screening result, P. aeruginosa (fold increase in extracellular AK activity)” value (P. aeruginosa; planktonic P. aeruginosa, […]) was 1.0 and the “AK-based Prestwick library screening result, E. coli (fold increase in extracellular AK activity)” value (E. coli; planktonic E. coli, […]) was 1.5. The “AK-based Prestwick library screening result, E. cloacae (fold increase in extracellular AK activity)” value (E. cloacae; planktonic E. cloacae, […]) was 1.6.
